These results are taken from ChEMBL document CHEMBL3856252, “Truncated Autoinducing Peptides as Antagonists of Staphylococcus lugdunensis Quorum Sensing” (J Med Chem, 2016).

Experiment [1] can be described thus: Competitive inhibition of Staphylococcus aureus SA502A quorum sensing system AgrC-2 after 24 hrs in presence of mouse IgG2a by YFP reporter gene assay. On the technique in general: Reporter assays use an easily measured gene product as a stand-in for the process of interest.
Experiment [2] is described as follows: Competitive inhibition of Staphylococcus aureus MW2 quorum sensing system AgrC-3 after 24 hrs in presence of mouse IgG2a by YFP reporter gene assay.
Experiment [3] in a line: Inhibition of Staphylococcus aureus RN6390B quorum sensing system AgrC-1 using cephalosporin/nitrocefin as substrate by P3 reporter assay.
Experiment [4] is described as follows: Competitive inhibition of Staphylococcus aureus quorum sensing system AgrC-3 by colorimetric analysis.
The nature of experiment [5]: Competitive inhibition of Staphylococcus aureus RN9222 quorum sensing system AgrC-1 by colorimetric analysis.
The nature of experiment [6]: Competitive inhibition of Staphylococcus aureus RN9372 quorum sensing system AgrC-2 by colorimetric analysis.

The structures appear in SMILES notation. pIC50: −log10 of the molar value. Where a SMILES comes first, the peptide text is derived from it.

For orientation: pIC50 means the IC50 on a negative log10 scale, so that one unit is a factor of ten. With `CC(=O)N[C@H]1CSC(=O)[C@H](Cc2ccccc2)NC(=O)[C@H](Cc2ccc(O)cc2)NC(=O)[C@H](CO)NC(=O)[C@H](C)NC1=O` (HELM PEPTIDE1{[ac].C.A.S.Y.F}$PEPTIDE1,PEPTIDE1,2:R3-6:R2$$$V2.0), the pIC50 is 6.80 in experiment [1] and 7.89 in experiment [2].

Turning to `CC[C@H](C)[C@@H]1NC(=O)[C@H](Cc2ccccc2)NC(=O)[C@H](CC(=O)O)NC(=O)[C@@H](NC(=O)[C@@H](NC(=O)[C@H](CO)NC(=O)[C@@H](N)Cc2ccc(O)cc2)[C@@H](C)O)CSC(=O)[C@H](CCSC)NC1=O` (HELM PEPTIDE1{Y.S.T.C.D.F.I.M}$PEPTIDE1,PEPTIDE1,4:R3-8:R2$$$V2.0), the pIC50 in experiment [3] is 7.70.

Take `CC(=O)N[C@H]1CSC(=O)[C@H](Cc2ccccc2)NC(=O)[C@H](Cc2ccc(O)cc2)NC(=O)[C@H](C)NC(=O)[C@H](CC(N)=O)NC1=O` (HELM PEPTIDE1{[ac].C.N.A.Y.F}$PEPTIDE1,PEPTIDE1,2:R3-6:R2$$$V2.0): the negative logarithm of the IC50 (pIC50) is 7.40 in experiment [4], 6.42 in experiment [5] and 6.38 in experiment [6].
